{
  "source": "patent US20190125753A1",
  "about": "“COMPOUNDS AND METHODS FOR INCREASING HEMATOPOIESIS” (University of Southern California, priority 2016, published 2019)",
  "key": {"[1]": {"test_system": "5-FU treated mice", "test": "Recovery from repeated 5-FU administration", "type": "in vivo, mouse", "description": "To test if p300/-catenin antagonists can also promote multi-dosing chemotherapeutic drug induced bone marrow inhibition, 4 rounds of 5-FU (two doses in each round) administration were given to CD45.2 female mice. 150 mg/kg of 5-FU was given to mice for the first three rounds and then 200 mg/kg for the last round (4th round). The second dose of 5-FU was 6 days apart from the first dose of 5-FU in each round. Either DMSO or YH250 (2 mg/kg) were given to animals 24 hours after the first dose of 5-FU in each round of 5-FU administration (FIG. 25A). Animal body weight, survival rate and blood count changes were monitored. […] After each round of 5-FU administration, animals were allowed to recover to normal blood count before next round of 5-FU administration. FIG. 25E depicts the blood count at nadir points after each round of 5-FU administration."}, "[2]": {"test_system": "lethally irradiated animals", "test": "Survival after lethal dose whole body radiation", "type": "in vivo, mouse", "description": "We next tested if YH250 can rescue animals from lethal dose radiation. […] However, YH250 (2 mg/Kg) administrated 24 hours post radiation rescued 50% of animals (Kaplan-Meier analysis p=0.0002).\nWith 8.5Gy radiation, all the animals (100%) survived in YH250 treatment group while there are only 30% animals survived in DMSO treatment group (p=0.0016, FIG. 21C). […] In principle, to optimize radiation remediation therapy, it should be advantageous to first (a) symmetrically expand the remaining viable stem cell pool (either HSC or ISC), using a method to enhance symmetric non-differentiative proliferation, i.e., by blocking the p300/catenin interaction thereby enhancing CBP/catenin signaling and (b) subsequently induce the differentiation of the stem cell pool via asymmetric divisions to enhance tissue repair and regeneration as rapidly as possible using a CBP/catenin antagonist. We therefore decided to test sequential administration of the p300/catenin antagonist YH250, followed by subsequent administration of the CBP/catenin antagonist ICG-001. An additional potential therapeutic benefit utilizing a CBP/catenin antagonist would be protection against fibrosis, which is a common chronic complication associated with radiation damage. […] We thus treated mice with either vehicle, YH250 (single 2 mg/Kg s.c., injection at 24 h post irradiation), ICG-001 (single 50 mg/Kg s.c., injection at 24 h post irradiation) or the combination of YH250/ICG-001, with YH250 (2 mg/Kg) given 24 h post irradiation followed by ICG-001 (50 mg/Kg) injection for 5 consecutive days starting at 48 h post-irradiation. After irradiation and the corresponding treatments, no special care was provided. The life-span after irradiation was observed on a daily basis and recorded."}, "[3]": {"test_system": "cord blood CD34+ cells", "test": "Cord blood CD34+ cell culture, colony morphology at day 8", "type": "cell-based, human", "settings": "4GF medium, day 8 in culture", "description": "Cord blood CD34^+ cells were cultured in serum free medium with different growth factor combination and different concentrations of YH250. We tested three serum free mediums with either 4 growth factors (4GF, or SF6T: SCF 100 ng/ml; Flt3 100 ng/ml, IL-6 20 ng/ml, and TPO 20 ng/ml) or 6 growth factors (6GF, or SF6TG3: SCF 100 ng/ml; Flt3 100 ng/ml, IL-6 20 ng/ml, TPO 20 ng/ml, GCSF 10 ng/ml, and IL-3 10 ng/ml). YH250 was at 0.3 μM or 1 μM concentration, DMSO, the solvent for YH250, was used as control. Frozen cord blood CD34+ cells were plated into 96 wells with different medium and different growth factors and different compound concentrations. At day 8 in culture, pictures were taken to record the cell growth and colony morphology (FIG. 12A)."}, "[4]": {"test_system": "bone marrow cells", "test": "Brief (4 h) incubation of bone marrow cells, 14 days culture, FACS", "type": "cell-based, mouse", "description": "Bone marrow cells were treated with DMSO or YH250 (0.5 μM) for 4 hours, then the compound was removed and the cells cultured in QBSF-58 medium for 14 days with 10 ng/ml of SCF, TPO, Flt3 ligand, and IL-6. At the end of culture, cells were recovered and analyzed for LSK cells with FACS.\nIn a further study, female CD45.1 mice bone marrow cells were incubated with DMSO, or YH249 (0.5 μM) or YH250 (0.5 μM) for 4 hrs in QBSF-58 media, then 2×10^4 cells were plated in QBSF-58 medium containing SCF, TPO, Flt3 and IL-6 (10 ng/ml for each) for 14 days. Cells were then recovered from plate for FACS analysis. […] Correspondingly, there are higher LSK cells (52%, 60% and 70% respectively for DMSO, YH249 and YH250). From every 10,000 analyzed cells, LSKCD34negt cell numbers are 437, 663 and 2051 for DMSO, YH249 and YH250 treated cells, respectively."}, "[5]": {"test_system": "7Gy irradiated animals", "test": "Peripheral blood count and body weight recovery after 7Gy radiation", "type": "in vivo", "description": "YH250 was then tested for stimulating blood count recovery in irradiated animals. In this experiment, animals received 7Gy whole body radiation and then, either YH250 or DMSO was administrated 24 hours post radiation. Animal body weight and peripheral blood counts were measured to monitor hematopoietic recovery (FIGS. 20A-20B). […] It is worth noting that it is a full lineage blood cell count recovery, including white blood cell (lymphocyte, monocyte and neutrophil), red blood cell and platelet (FIG. 20C). The neutrophil and platelet recovery is most significant."}, "[6]": {"test_system": "bone marrow cells", "test": "Bone marrow CFC recovery after 7Gy radiation", "type": "in vivo, mouse", "description": "According to particular aspects of the present invention, if YH250 can stimulate 7Gy irradiated animal HSPC proliferation/expansion, the compound may accelerate the recovery of the hematopoiesis from radiation damage. We first tested if YH250 treatment accelerates bone marrow cell CFC activities, the more differentiated cells. After 7Gy radiation and either DMSO or YH250 administration 24 hours post radiation, bone marrow cells were recovered at different time points (day 6, 11, 13, 15 post treatment) and CFC assays were performed (FIG. 19A). […] Consistent with increased colony numbers, there are more cells from plates of YH250 treated cells."}, "[7]": {"settings": "especially last three rounds of 5-FU"}, "[8]": {"settings": "0.5 μM 4 hours, 14 days in QBSF-58 with SCF, TPO, Flt3 ligand, IL-6"}, "[9]": {"settings": "administered 24 hours post radiation"}},
  "data": [
    {"smiles": "COc1cccc(CNC(=O)N2C3CN(Cc4cc(Cl)cc(Cl)c4N(C)C)C(=O)[C@H](Cc4ccc(O)cc4)N3C(=O)CN2C)c1OC", "note": "(stereo partly drawn) [YH250]", "values": [
      {"measurement": "RBC at nadir points", "setting": "[1]; 4 rounds of 5-FU", "result": "no significant effect on RBC"},
      {"measurement": "survival", "setting": "[1]; 5-FU 200 mg/kg (4th round), 60% died in DMSO group, p=0.04", "result": "all animals survived"},
      {"measurement": "WBC at nadir point", "setting": "[1]; [7]", "result": "significantly higher"},
      {"measurement": "platelet at nadir point", "setting": "[1]; [7]", "result": "significantly higher"},
      {"measurement": "body weight", "setting": "[1]; from second round of 5-FU administration, 2 mg/kg each round", "result": "less weight drop"},
      {"measurement": "body weight vs DMSO", "setting": "[2]; 8.5Gy", "result": "less body weight drop"},
      {"measurement": "animals survived", "setting": "[2]; 8.5Gy (LD70/60), 2 mg/Kg 24 hours post radiation, DMSO 30%, p=0.0016", "result": 100, "unit": "%"},
      {"measurement": "body weight", "setting": "[2]; 9Gy", "result": "less body weight drop"},
      {"measurement": "animals rescued (survival)", "setting": "[2]; 9Gy (LD100/60), 2 mg/Kg 24 hours post radiation, p=0.0002", "result": 50, "unit": "%"},
      {"measurement": "life-span after irradiation vs control group", "setting": "[2]; YH250 2 mg/Kg s.c. 24 h post irradiation, combination followed by ICG-001 50 mg/Kg 5 consecutive days from 48 h", "result": "significantly extended life-spans"},
      {"measurement": "colony morphology", "setting": "[3]", "result": "more close to “stem cell colony” morphology"},
      {"measurement": "percentage of LSK cells vs DMSO", "setting": "[4]; [8]", "result": "significantly higher"},
      {"measurement": "percentage of Lineage negative cells vs DMSO", "setting": "[4]; [8]", "result": "significantly higher"},
      {"measurement": "lineage negative cell", "setting": "[4]; 0.5 μM 4 hrs, 14 days culture, DMSO 9%", "result": 33, "unit": "%"},
      {"measurement": "LSK cells", "setting": "[4]; 0.5 μM 4 hrs, 14 days culture, DMSO 52%", "result": 70, "unit": "%"},
      {"measurement": "LSKCD34negt cell numbers", "setting": "[4]; from every 10,000 analyzed cells, 0.5 μM 4 hrs, 14 days culture, DMSO 437", "result": 2051},
      {"measurement": "blood cell count at nadir points vs DMSO", "setting": "[5]", "result": "significantly higher"},
      {"measurement": "blood count recovery (full lineage)", "setting": "[5]; [9]", "result": "Accelerated blood count recovery"},
      {"measurement": "body weight", "setting": "[5]; [9]", "result": "very little weight drop"},
      {"measurement": "cells from CFC plates", "setting": "[6]; 7Gy radiation", "result": "more cells"},
      {"measurement": "colonies in CFC assay vs DMSO treated mice", "setting": "[6]; 14th day post 7Gy radiation", "result": "significantly more colonies"}
    ]}
  ]
}
